According to PubChem BioAssay (NCI):
Values joined by “and” are separate entries in the source; they are usually repeats but may differ in a detail not shown here. Identical values can stand only once.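 Five concentrations, 48 hours, 96-well plates. GI50 marks 50% less growth. TGI marks complete inhibition of growth.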

What was measured:
Experiment in all cases: growth of human tumour cells (NCI), 48 h
[1] = test system: HCT-116 colon
[2] = test system: HCC-2998 colon
[3] = test system: SNB-75 CNS
[4] = test system: SN12C renal
[5] = test system: NCI-H23 lung
[6] = test system: SW-620 colon
[7] = test system: KM12 colon
[8] = test system: NCI-H226 lung
[9] = test system: DU-145 prostate
[10] = test system: OVCAR-5 ovarian

CC(C)CC(=O)CC(O)C(Cl)(Cl)Cl (centres undefined)
TGI [1]: > 100 µM | TGI [2]: > 100 µM | TGI [3]: > 100 µM | TGI [4]: > 100 µM | TGI [5]: > 100 µM | TGI [6]: > 100 µM | TGI [7]: > 100 µM | TGI [8]: > 100 µM | TGI [9]: > 100 µM | TGI [10]: > 100 µM

C=C1C(=O)O[C@H]2[C@H]1CC(=O)/C(C)=C\CC[C@@]1(C)O[C@@H]21
GI50 [1]: 1.26 µg/mL | TGI [1]: 4.97 µg/mL | GI50 [2]: 3.47 µg/mL | TGI [2]: 7.4 µg/mL | GI50 [3]: 4.93 µg/mL | TGI [3]: 9.57 µg/mL | GI50 [4]: 4.17 µg/mL | TGI [4]: 8.4 µg/mL | GI50 [5]: 3.94 µg/mL | TGI [5]: 8.18 µg/mL | GI50 [6]: 1.06 µg/mL | TGI [6]: 6.15 µg/mL | GI50 [7]: 4.77 µg/mL | TGI [7]: 8.79 µg/mL | GI50 [8]: 4.71 µg/mL | TGI [8]: 9.45 µg/mL | GI50 [9]: 3.44 µg/mL | TGI [9]: 7.11 µg/mL | GI50 [10]: 4.16 µg/mL | TGI [10]: 8.24 µg/mL

CC(C)(C)c1nnc2n(c1=O)N=CC(c1ccc(Br)cc1)S2 (centres undefined)
GI50 [1]: 23.9 µM | TGI [1]: 50.9 µM | GI50 [2]: 26.3 µM | TGI [2]: 56.7 µM | GI50 [3]: 21.5 µM | TGI [3]: 96.6 µM | GI50 [4]: 27.7 µM | TGI [4]: 57.2 µM | GI50 [5]: 19.8 µM | TGI [5]: 46.8 µM | GI50 [6]: 35.1 µM | TGI [6]: > 100 µM | GI50 [7]: 26.1 µM | TGI [7]: > 100 µM | GI50 [8]: 21.4 µM | TGI [8]: 51 µM | GI50 [9]: 29.3 µM | TGI [9]: > 100 µM | GI50 [10]: 42.2 µM | TGI [10]: > 100 µM

Oc1ccc(SCc2ccc(NCc3ccccc3)cc2)cc1
TGI [1]: > 100 µM | TGI [2]: 94.7 µM | TGI [3]: 67.2 µM | TGI [4]: 64.6 µM | TGI [5]: > 100 µM | TGI [6]: > 100 µM | TGI [7]: > 100 µM | TGI [8]: > 100 µM | TGI [9]: > 100 µM | TGI [10]: 69.3 µM

COc1ccc(-c2c(C#N)c(N)nc3c2CCCc2ccc(F)cc2-3)cc1OC
GI50 [1]: 0.187 µM | TGI [1]: 11 µM | GI50 [2]: 0.354 µM | TGI [2]: 14.4 µM | GI50 [3]: 1.36 µM | TGI [3]: > 100 µM | GI50 [4]: < 0.0499 µM | TGI [4]: 4.75 µM | GI50 [5]: 0.487 µM | TGI [5]: > 100 µM | TGI [6]: > 38.8 µM | GI50 [7]: < 0.01 µM | TGI [7]: 2.58 µM | GI50 [8]: < 0.01 µM | TGI [8]: > 100 µM | GI50 [9]: 0.0164 µM | TGI [9]: 15.7 µM | GI50 [10]: 8.97 µM | TGI [10]: > 100 µM

COc1ccc(Cn2cc(Cn3c(=O)c(-c4nc5ccccc5[nH]4)cc4ccccc43)nn2)c(OC)c1OC
GI50 [1]: 0.094 µM and 0.0954 µM | TGI [1]: 1.25 µM and 1.73 µM | GI50 [2]: 0.174 µM and 0.291 µM | TGI [2]: 1.2 µM and 2.07 µM | GI50 [3]: 0.0354 µM | TGI [3]: 0.432 µM | GI50 [4]: 0.217 µM and 0.426 µM | TGI [4]: 50 µM and > 100 µM | GI50 [5]: 0.329 µM and 0.581 µM | TGI [5]: 50 µM and > 100 µM | GI50 [6]: 0.223 µM and 0.293 µM | TGI [6]: 50 µM and > 100 µM | GI50 [7]: 0.226 µM and 0.186 µM | TGI [7]: 1.39 µM and 1.48 µM | GI50 [8]: 0.338 µM | TGI [8]: > 100 µM | GI50 [9]: 0.22 µM | TGI [9]: 0.769 µM | GI50 [10]: 0.201 µM and 0.329 µM | TGI [10]: 1.23 µM and 1.53 µM

COc1cc2c3c(n(C)c(=O)c2cc1OC)-c1cc2c(cc1/C3=C\[C@@H](N)CCCCN)OCO2
GI50 [1]: 0.329 µM | TGI [1]: 14.4 µM | GI50 [2]: 2.99 µM | TGI [2]: 45.9 µM | GI50 [3]: 0.985 µM | TGI [3]: > 41.3 µM | GI50 [4]: 0.46 µM | TGI [4]: 6.95 µM | GI50 [5]: 1.29 µM | TGI [5]: 20.5 µM | GI50 [6]: 1.57 µM | TGI [6]: > 100 µM | GI50 [7]: 1.58 µM | TGI [7]: > 100 µM | GI50 [8]: 1.48 µM | TGI [8]: 18.4 µM | GI50 [9]: 0.717 µM | TGI [9]: 37 µM | GI50 [10]: 5.14 µM | TGI [10]: > 100 µM

Oc1ccc(-c2nc3ccc4[nH]ncc4c3c3c2CCCC3)c2cccnc12
GI50 [1]: 0.228 µM | TGI [1]: 4.14 µM | GI50 [2]: 0.319 µM | TGI [2]: 5.45 µM | GI50 [3]: 0.132 µM | TGI [3]: 1.06 µM | GI50 [4]: 0.206 µM | TGI [4]: 6.79 µM | GI50 [5]: 0.158 µM | TGI [5]: 1.66 µM | GI50 [6]: 0.123 µM | TGI [6]: 11.1 µM | GI50 [7]: 0.311 µM | TGI [7]: 7.93 µM | GI50 [8]: 1.22 µM | TGI [8]: 5.79 µM | GI50 [9]: 0.5 µM | TGI [9]: 8.13 µM | GI50 [10]: 1.16 µM | TGI [10]: 14.7 µM

CCCCc1nc2cc(/C=C/C(=O)NO)ccc2n1CCN(CC)CC
GI50 [1]: 0.115 µM | TGI [1]: 0.571 µM | GI50 [2]: 0.242 µM | TGI [2]: 1.23 µM | GI50 [3]: 0.227 µM | TGI [3]: 25.4 µM | GI50 [4]: 0.489 µM | TGI [4]: 30.1 µM | GI50 [5]: 0.452 µM | TGI [5]: 7.72 µM | GI50 [6]: 0.228 µM | TGI [6]: 3.32 µM | GI50 [7]: 0.356 µM | TGI [7]: 5.73 µM | GI50 [8]: 0.608 µM | TGI [8]: 3.45 µM | GI50 [9]: 0.302 µM | TGI [9]: 4.64 µM | GI50 [10]: 0.13 µM | TGI [10]: 1.4 µM

C=CCNc1cccc2c1C(=O)c1ccccc1C2(O)CC=C (centres undefined)
GI50 [1]: 17.7 µM | TGI [1]: 32.3 µM | GI50 [2]: 20.1 µM | TGI [2]: 37.4 µM | GI50 [3]: 17 µM | TGI [3]: 45.7 µM | GI50 [4]: 20.2 µM | TGI [4]: 43 µM | GI50 [5]: 18.2 µM | TGI [5]: 45.7 µM | GI50 [6]: 22.2 µM | TGI [6]: 55.1 µM | GI50 [7]: 23.6 µM | TGI [7]: 56.9 µM | GI50 [8]: 20.2 µM | TGI [8]: 49.2 µM | GI50 [9]: 24.9 µM | TGI [9]: 63 µM | GI50 [10]: 31.5 µM | TGI [10]: 67.9 µM

COc1ccc2sc3c(NCCCNCCO)nc4ccccc4c3c(=O)c2c1
GI50 [1]: 1.59 µM | TGI [1]: 3.03 µM | GI50 [2]: 1.68 µM | TGI [2]: 3.29 µM | GI50 [3]: 1.82 µM | TGI [3]: 3.34 µM | GI50 [4]: 1.6 µM | TGI [4]: 3.12 µM | GI50 [5]: 1.73 µM | TGI [5]: 3.27 µM | GI50 [6]: 1.61 µM | TGI [6]: 3.13 µM | GI50 [7]: 1.62 µM | TGI [7]: 3.12 µM | GI50 [8]: 2.09 µM | TGI [8]: 3.75 µM | GI50 [9]: 1.6 µM | TGI [9]: 2.98 µM | GI50 [10]: 1.6 µM | TGI [10]: 3.05 µM

COC(=O)[C@]12CC[C@@H](C)[C@H](C)[C@@H]1C1=CC[C@@H]3[C@@]4(C)C=C(O)C(=O)C(C)=C4CC[C@@]3(C)[C@]1(C)CC2
GI50 [1]: 6.03 µM | TGI [1]: 20.6 µM | GI50 [2]: 8.6 µM | TGI [2]: 23.3 µM | GI50 [3]: 13.9 µM | TGI [3]: 31.3 µM | GI50 [4]: 19.2 µM | TGI [4]: 50.4 µM | GI50 [5]: 11 µM | TGI [5]: 27.8 µM | GI50 [6]: 17.3 µM | TGI [6]: 35.7 µM | GI50 [7]: 7.72 µM | TGI [7]: 21.8 µM | GI50 [8]: 12.3 µM | TGI [8]: 41 µM | GI50 [9]: 15.2 µM | TGI [9]: 33.3 µM | GI50 [10]: 17.8 µM | TGI [10]: 38.6 µM

CC(=O)OC1=C2C(CC3C4CC=C5CC(OC(C)=O)CCC5(C)C4CCC23C)C2C(=O)N(Cc3ccccc3)C(=O)C2C1 (centres undefined)
GI50 [1]: 3.82 µM | TGI [1]: 17.2 µM | GI50 [2]: 11.4 µM | TGI [2]: 67 µM | GI50 [3]: 5.54 µM | TGI [3]: 86.5 µM | GI50 [4]: 10.9 µM | TGI [4]: > 100 µM | GI50 [5]: 16.6 µM | TGI [5]: 74 µM | GI50 [6]: 12.2 µM | TGI [6]: > 100 µM | GI50 [7]: 5.98 µM | TGI [7]: 46.8 µM | GI50 [8]: 8.16 µM | TGI [8]: > 100 µM | GI50 [9]: 32.8 µM | TGI [9]: > 100 µM | GI50 [10]: 50.3 µM | TGI [10]: > 100 µM
